Laboratory results from ChEMBL document CHEMBL5661943, “ASAP - In vitro antiviral effect” (2024).

Assays:
Zika virus [1] = assay: Functional CPE-based assay to measure dose dependent changes in antiviral-drug inhibitory efficacy against Zika virus MR766 in Vero E6 miRFP670 cells. Cells are treated with antiviral candidates that are serially diluted. EC50 is reported via analysis of MTS assay as a readout of CPE. The assay has been performed by KU Leuven.; assay type: organism-based, Chlorocebus sabaeus, Vero C1008; conditions: Zika virus; for EC50: Vero C1008
Zika virus [2] = assay: EC50 is reported via analysis of immunofluorescence staining. The assay has been performed by Icahn School of Medicine at Mount Sinai.; assay type: functional, organism-based, Chlorocebus sabaeus, VeroE6/TMPRSS2; conditions: Zika virus; for EC90: P-gp concentration 2 uM, P-gp inhibitor Elacidar
dengue virus type 2 [3] = assay: Functional immunofluorescence assay to measure dose dependent changes in antiviral-drug inhibitory efficacy against Dengue virus type 2 Thailand/16681/84 in Vero E6/TMPRSS2 cells (cotreated with P-gp inhibitor, Elacridar). Cells are treated with antiviral candidates that are serially diluted, following infection, cells are fixed. EC50 is reported via analysis of immunofluorescence staining. The assay has been performed by Icahn School of Medicine at Mount Sinai.; assay type: organism-based, Chlorocebus sabaeus, VeroE6/TMPRSS2; conditions: Dengue virus
dengue virus type 2 [4] = assay: Functional assay to measure dose dependent changes in antiviral-drug inhibitory efficacy against Dengue virus type 2 New Guinea C in Vero E6 miRFP670 cells (cotreated with P-gp inhibitor, CP100356). Cells are treated with antiviral candidates that are serially diluted, following infection, cells are fixed. EC50 is reported via analysis of fluorescence intensity using high-content imager. The …; assay type: organism-based, Chlorocebus sabaeus, Vero C1008; conditions: Dengue virus

| Structure (SMILES) | EC50 (Zika virus [1]) | EC50 (Zika virus [2]; VeroE6/TMPRSS2) | EC50 (dengue virus type 2 [3]; VeroE6/TMPRSS2) | EC50 (dengue virus type 2 [4]; Vero C1008) | EC90 (dengue virus type 2 [3]; VeroE6/TMPRSS2) | also measured |
| --- | --- | --- | --- | --- | --- | --- |
| O=C(Nc1ccc2c(c1)CNC2)c1cc(Br)cc2[nH]c(-c3ccccc3)nc12 | < 0.391 µM | > 5.56 µM | > 50 µM | > 50 µM |  | EC90 (Zika virus [1]; Vero C1008, Baseline response 0 %, Hill slope -0.169, Maximum measured 22.843 %, Maximum response 100 %, Minimum measured -3.22 %, R squared 0.045): < 0.391 µM; EC90 (Zika virus [2]; VeroE6/TMPRSS2, Maximum measured 77.487 %, Minimum measured 34.255 %): > 5.56 µM; EC90 (dengue virus type 2 [3]; VeroE6/TMPRSS2, Maximum measured 303.364 %, Minimum measured 144.726 %, P-gp concentration 2 uM, P-gp inhibitor Elacidar): > 50 µM; EC90 (dengue virus type 2 [4]; Vero C1008, Baseline response 0 %, Hill slope -0.881, Maximum measured 119.709 %, Maximum response 100 %, Minimum measured 77.354 %, P-gp concentration 500 nM, R squared 0.142, P-gp inhibitor CP100356): > 50 µM |
| O=C(NS(=O)(=O)C1CC1)c1cc(Cl)ccc1NS(=O)(=O)c1ccc(Oc2ccccc2Cl)cc1 | > 50 µM | 45.9 µM | 42.5 µM | 44.5 µM |  | EC90 (Zika virus [1]; Vero C1008, Baseline response 0 %, Hill slope 1.706, Maximum measured 45.349 %, Maximum response 100 %, Minimum measured -3.564 %, R squared 0.879): > 50 µM; EC90 (Zika virus [2]; VeroE6/TMPRSS2, Baseline response 0 %, Hill slope -22.702, Maximum measured 122.036 %, Maximum response 100 %, Minimum measured 12.187 %, R squared 0.505): > 50 µM; EC90 (dengue virus type 2 [3]; VeroE6/TMPRSS2, Baseline response 0 %, Hill slope -20.818, Maximum measured 101.748 %, Maximum response 70 %, Minimum measured 2.339 %, P-gp concentration 2 uM, R squared 0.5, P-gp inhibitor Elacidar): 47.3 µM; EC90 (dengue virus type 2 [4]; Vero C1008, Baseline response 0 %, Hill slope -56.608, Maximum measured 108.404 %, Maximum response 100 %, Minimum measured 0.137 %, P-gp concentration 500 nM, R squared 0.959, P-gp inhibitor CP100356): 46.3 µM |
| CCOc1cccc(-c2ccc(S(=O)(=O)Nc3ccc(Cl)cc3C(=O)O)cc2C)c1 | > 50 µM | 2.44 µM | 0.175 µM | 22.3 µM | > 16.7 µM | EC90 (Zika virus [1]; Vero C1008, Baseline response 0 %, Hill slope -0.317, Maximum measured 5.247 %, Maximum response 100 %, Minimum measured -4.425 %, R squared 0.236): > 50 µM; EC90 (Zika virus [2]; VeroE6/TMPRSS2, Baseline response 0 %, Hill slope -0.481, Maximum measured 136.466 %, Maximum response 100 %, Minimum measured 2.895 %, R squared 0.53): > 50 µM; EC90 (dengue virus type 2 [4]; Vero C1008, Baseline response 0 %, Hill slope -31.955, Maximum measured 106.035 %, Maximum response 100 %, Minimum measured 0.035 %, P-gp concentration 500 nM, R squared 0.9, P-gp inhibitor CP100356): 23.9 µM |
| CC(C)c1nc2c(C(=O)Nc3ccc4c(c3)CNC4)cc(Br)cc2[nH]1 | < 0.391 µM | > 5.56 µM | > 16.7 µM | > 3.12 µM |  | EC90 (Zika virus [1]; Vero C1008, Baseline response 0 %, Hill slope -0.56, Maximum measured 41.831 %, Maximum response 100 %, Minimum measured -11.106 %, R squared 0.026): < 0.391 µM; EC90 (Zika virus [2]; VeroE6/TMPRSS2, Baseline response 0 %, Hill slope 0.282, Maximum measured 117.995 %, Maximum response 100 %, Minimum measured 67.231 %, R squared 0.042): > 5.56 µM; EC90 (dengue virus type 2 [3]; VeroE6/TMPRSS2, Maximum measured 259.996 %, Minimum measured 97.005 %, P-gp concentration 2 uM, P-gp inhibitor Elacidar): > 16.7 µM; EC90 (dengue virus type 2 [4]; Vero C1008, Maximum measured 127.324 %, Minimum measured 101.275 %, P-gp concentration 500 nM, P-gp inhibitor CP100356): > 3.12 µM |
| CC(C)(C)NC(=O)[C@H](Nc1cccc(-c2nn[nH]n2)c1)c1cc(Cl)cc(NC(=O)OCc2ccccc2)c1 | 49.8 µM | 37.4 µM | > 50 µM | 50 µM |  | EC90 (Zika virus [1]; Vero C1008, Baseline response 0 %, Hill slope 4.346, Maximum measured 50.323 %, Maximum response 100 %, Minimum measured -0.582 %, R squared 0.944): > 50 µM; EC90 (Zika virus [2]; VeroE6/TMPRSS2, Baseline response 0 %, Hill slope -8.55, Maximum measured 97.768 %, Maximum response 77.157 %, Minimum measured 5.982 %, R squared 0.78): 48.4 µM; EC90 (dengue virus type 2 [3]; VeroE6/TMPRSS2, Maximum measured 98.938 %, Minimum measured 28.549 %, P-gp concentration 2 uM, P-gp inhibitor Elacidar): > 50 µM; EC90 (dengue virus type 2 [4]; Vero C1008, Baseline response 0 %, Hill slope -29.373, Maximum measured 114.47 %, Maximum response 100 %, Minimum measured 52.367 %, P-gp concentration 500 nM, R squared 0.626, P-gp inhibitor CP100356): > 50 µM |
| Clc1ccc2[nH]cc(Cc3ccc(-c4nn[nH]n4)cc3)c2c1 | > 50 µM | 39.4 µM | 24.6 µM | > 50 µM | 34 µM | EC90 (Zika virus [1]; Vero C1008, Maximum measured 1.604 %, Minimum measured -1.05 %): > 50 µM; EC90 (Zika virus [2]; VeroE6/TMPRSS2, Baseline response 0 %, Hill slope -2.483, Maximum measured 171.794 %, Maximum response 100 %, Minimum measured 35.965 %, R squared 0.343): > 50 µM; EC90 (dengue virus type 2 [4]; Vero C1008): > 50 µM |
| CC(C)Cc1nc2c(C(=O)Nc3ccc4c(c3)CNC4)cc(Br)cc2[nH]1 | > 50 µM | > 5.56 µM | > 5.56 µM | > 0.781 µM |  | EC90 (Zika virus [1]; Vero C1008, Baseline response 0 %, Hill slope 1.82, Maximum measured 17.962 %, Maximum response 100 %, Minimum measured -5.537 %, R squared 0.817): > 50 µM; EC90 (Zika virus [2]; VeroE6/TMPRSS2, Baseline response 0 %, Hill slope -10.435, Maximum measured 137.671 %, Maximum response 100 %, Minimum measured 68.671 %, R squared 0.096): > 5.56 µM; EC90 (dengue virus type 2 [3]; VeroE6/TMPRSS2, Maximum measured 192.149 %, Minimum measured 144.973 %, P-gp concentration 2 uM, P-gp inhibitor Elacidar): > 5.56 µM; EC90 (dengue virus type 2 [4]; Vero C1008, Maximum measured 122.11 %, Minimum measured 121.973 %, P-gp concentration 500 nM, P-gp inhibitor CP100356): > 0.781 µM |
| COC(=O)c1cc(NC(=O)c2cc(Cl)cc(NC(=O)OCc3ccccc3)c2)cc(-c2nnn[nH]2)c1 | > 50 µM | > 16.7 µM | 39.8 µM | 43.1 µM |  | EC90 (Zika virus [1]; Vero C1008, Maximum measured 4.051 %, Minimum measured -3.87 %): > 50 µM; EC90 (Zika virus [2]; VeroE6/TMPRSS2, Maximum measured 163.156 %, Minimum measured 112.225 %): > 16.7 µM; EC90 (dengue virus type 2 [3]; VeroE6/TMPRSS2, Baseline response 0 %, Hill slope -17.631, Maximum measured 314.134 %, Maximum response 266.23 %, Minimum measured 4.599 %, P-gp concentration 2 uM, R squared 0.779, P-gp inhibitor Elacidar): 45 µM; EC90 (dengue virus type 2 [4]; Vero C1008): 49.4 µM |
| O=C(Nc1ccc2c(c1)CNCCC2)c1cc(Cl)cc2[nH]ncc12 | > 50 µM | 47.6 µM | 26 µM | > 1.56 µM | 45 µM | EC90 (Zika virus [1]; Vero C1008, Baseline response 0 %, Hill slope 0.723, Maximum measured 1.937 %, Maximum response 100 %, Minimum measured -1.308 %, R squared 0.05): > 50 µM; EC90 (Zika virus [1]; Vero C1008, Maximum measured 5.01 %, Minimum measured -5.78 %): > 50 µM; EC90 (Zika virus [2]; VeroE6/TMPRSS2, Baseline response 0 %, Hill slope -16.818, Maximum measured 150.619 %, Maximum response 100 %, Minimum measured 30.484 %, R squared 0.241): > 50 µM; EC90 (dengue virus type 2 [4]; Vero C1008, Baseline response 0 %, Hill slope 9.827, Maximum measured 112.729 %, Maximum response 100 %, Minimum measured 86.907 %, P-gp concentration 500 nM, R squared 0.124, P-gp inhibitor CP100356): > 1.56 µM |
| NCc1cccc(CCc2cc(Cl)cc(NC(=O)OCc3ccccc3)c2)c1 | > 50 µM | > 50 µM | > 1.85 µM | 7.13 µM |  | EC90 (Zika virus [1]; Vero C1008, Maximum measured 1.168 %, Minimum measured -5.971 %): > 50 µM; EC90 (Zika virus [2]; VeroE6/TMPRSS2, Maximum measured 110.897 %, Minimum measured 60.854 %): > 50 µM; EC90 (dengue virus type 2 [3]; VeroE6/TMPRSS2, Maximum measured 240.936 %, Minimum measured 110.203 %, P-gp concentration 2 uM, P-gp inhibitor Elacidar): > 1.85 µM; EC90 (dengue virus type 2 [4]; Vero C1008, Baseline response 0 %, EC90 CI (lower) 3.921 uM, EC90 CI (upper) 6.549 uM, Hill slope -6.432, Maximum measured 108.307 %, Maximum response 100 %, Minimum measured 4.257 %, P-gp concentration 500 nM, R squared 0.964, P-gp inhibitor CP100356): 10 µM |
| O=C(Nc1cc(Cl)cc(C(=O)NCc2ccc(-c3nnn[nH]3)cc2)c1)OCc1ccccc1 | > 50 µM | > 16.7 µM | 24.8 µM | > 50 µM | 40.9 µM | EC90 (Zika virus [1]; Vero C1008, Baseline response 0 %, Hill slope 2.99, Maximum measured 29.669 %, Maximum response 100 %, Minimum measured 0.824 %, R squared 0.934): > 50 µM; EC90 (Zika virus [2]; VeroE6/TMPRSS2, Maximum measured 73.474 %, Minimum measured 51.372 %): > 16.7 µM; EC90 (dengue virus type 2 [4]; Vero C1008, Maximum measured 125.704 %, Minimum measured 70.659 %, P-gp concentration 500 nM, P-gp inhibitor CP100356): > 50 µM |
| O=C(Nc1ccc2c(c1)CNC2)c1cc(Cl)cc(C2CC2)c1 | < 0.391 µM | > 5.56 µM | > 50 µM | > 12.5 µM |  | EC90 (Zika virus [1]; Vero C1008, Baseline response 0 %, Hill slope -0.16, Maximum measured 19.084 %, Maximum response 100 %, Minimum measured -10.525 %, R squared 0.01): < 0.391 µM; EC90 (Zika virus [2]; VeroE6/TMPRSS2, Baseline response 0 %, Hill slope -0.303, Maximum measured 133.833 %, Maximum response 100 %, Minimum measured 73.063 %, R squared 0.118): > 5.56 µM; EC90 (dengue virus type 2 [3]; VeroE6/TMPRSS2, Baseline response 0 %, Hill slope -0.218, Maximum measured 127.968 %, Maximum response 100 %, Minimum measured 35.242 %, P-gp concentration 2 uM, R squared 0.016, P-gp inhibitor Elacidar): > 50 µM; EC90 (dengue virus type 2 [4]; Vero C1008, Baseline response 0 %, Hill slope -18.192, Maximum measured 115.18 %, Maximum response 100 %, Minimum measured 61.318 %, P-gp concentration 500 nM, R squared 0.219, P-gp inhibitor CP100356): > 12.5 µM |
